Patent publication US20250152781A1, “TISSUE ENGINEERING AND DRUG DELIVERY DEVICE” (Ohio State Innovation Foundation, priority 2022, published 2025)

Assay: Diffusive release of Rose Bengal through sintered electrospun polymer capsule wall in PBS
Assay type: physicochemical
Text: To create a generic advantage that dramatically enhances the long-term drug delivery properties of electrospun scaffolds beyond those currently available via electrospinning alone. A little-known aspect of materials processing is that the shrinkage of high surface area polymers (e.g., in electrospun or electrosprayed form) can be used to provide higher density polymers. In the context of electrospun tissue engineering scaffolds, this phenomenon can be used to create relatively dense material from polymer compositions that would be difficult—if not impossible—to create via extrusion. The relatively dense material then creates a solid barrier through which diffusion of the internally-held drug can occur. The simplest version of this process involves creating a hollow tube via electrospinning (FIG. 1), sintering it to full or nearly-full density (thus eliminating open porosity, see FIG. 2), and then inserting the drug of interest contained with the appropriate solvent. Once this is complete, the ends of the tube can be heat-sealed (FIG. 3) using commonly available, purpose-built equipment designed and manufactured for the purpose of heat-sealing plastics of nearly any chemical composition. […]

Compound: O=C([O-])c1c(Cl)c(Cl)c(Cl)c(Cl)c1-c1c2cc(I)c(=O)c(I)c-2oc2c(I)c([O-])c(I)cc12.[Na+].[Na+] [Rose Bengal]
- drug release rate of Rose Bengal through 95% PCL-5% PET wall (95% PCL-5% polyethylene terephthalate wall formed by electrospinning then sintering to full density, after 30+ days of release (FIG. 5)): above 10 μg/day
- release rate of Rose Bengal through PCL capsule wall (PCL wall formed by electrospinning then sintering to full density, after 120 days of exposure to 37° C. phosphate-buffered saline (FIG. 4)): 9 to 10 µg/day
